The numbers were not newly measured in US7332525B2, “Method of treatment of prostate cancer and composition for treatment thereof” (priority 2003, dated 2008), which cites them from elsewhere.

Data set [1] concerns metastasized prostate cancer. As to conditions: in vivo.
Data set [2] deals with metastasized, hormone refractory prostate cancer. The note with it: high doses of tamoxifen alone; patients with metastasized and hormone refractory prostate cancer.

Regarding `O=C(c1ccc(OCCN2CCCCC2)cc1)c1c(-c2ccc(O)cc2)sc2cc(O)ccc12` [raloxifene, 6-hydroxy-2(4-hydroxyphenyl)-3-[4-(2-piperdinoethoxy)benzoyl]benzo[b]thiophene], the “effect on the progression of metastasized prostate cancer” value in data set [1] is “some effect”. For the compound `CC/C(=C(\c1ccccc1)c1ccc(OCCN(C)C)cc1)c1ccccc1.O=C(O)CC(O)(CC(=O)O)C(=O)O` [tamoxifen, (Z)2-[4-(1,2-diphenyl-1-butenyl)phenoxy]-N, N-dimethylethanamine 2-hydroxy-1,2,3-propanetricarboxylate (1:1)], the “effect on prostate cancer cells” value in data set [2] is on record as “some effect”.

Consider `CN(C)CCOc1ccc(C(=C(CCCl)c2ccccc2)c2ccccc2)cc1` [toremifene, 4-chloro-1,2-diphenyl-1-{4-[2-(N,N-dimethylamino)ethoxy]-phenyl}-1-butene], for which, in data set [1], the “effect on the progression of metastasized prostate cancer” value is recorded as “some effect”.
